Results taken from ChEMBL document CHEMBL1124865, “Synthesis and biological evaluation of a series of parenteral 3'-quaternary ammonium cephalosporins” (J Med Chem, 1990).
Converted amounts (≈) assume the structure as drawn.

Experiments:
Type in all cases: functional
Enterobacter cloacae [1] = test: Antibacterial activity against Enterobacter cloacae 265A; settings: Enterobacter cloacae; read-out: MIC
Escherichia coli [2] = test: Antibacterial activity against Escherichia coli EC14; settings: Escherichia coli; read-out: MIC
Enterobacter cloacae [3] = test: Antibacterial activity against Enterobacter cloacae EB5; settings: Enterobacter cloacae; read-out: MIC
Escherichia coli [4] = test: Antibacterial activity against Escherichia coli TEM
Klebsiella pneumoniae [5] = test: microbe, parasite or virus in culture; settings: Klebsiella pneumoniae; read-out: MIC
Description: Antibacterial activity against Klebsiella pneumoniae 1082E

Klebsiella pneumoniae [6] = test: Antibacterial activity against Klebsiella pneumoniae X26
Pseudomonas aeruginosa [7] = test: Antibacterial activity against Pseudomonas aeruginosa X528; settings: Pseudomonas aeruginosa; read-out: MIC
Pseudomonas aeruginosa [8] = test: Antibacterial activity against Pseudomonas aeruginosa PS18; settings: Pseudomonas aeruginosa; read-out: MIC
Staphylococcus aureus [9] = test: Antibacterial activity against penicillin G resistance Staphylococcus aureus; settings: Staphylococcus aureus; read-out: MIC
Staphylococcus aureus [10] = test: Antibacterial activity against penicillin G susceptible Staphylococcus aureus; settings: Staphylococcus aureus; read-out: MIC
Streptococcus pneumoniae = test: Antibacterial activity against Streptococcus pneumoniae; settings: Streptococcus pneumoniae; read-out: MIC
Serratia marcescens = test: Antibacterial activity against Serratia marcescens SE3; settings: Serratia marcescens; read-out: MIC
Streptococcus pyogenes = test: Antibacterial activity against Streptococcus pyogenes; settings: Streptococcus pyogenes; read-out: MIC
Enterococcus faecium = test: Antibacterial activity against Enterococcus faecium; settings: Enterococcus faecium; read-out: MIC
Staphylococcus aureus [11] = test: In vivo efficacy against Staphylococcus aureus infected mice treated at 1 hr and 5 hr post infection
[12] = Escherichia coli, read-out: MIC
[13] = Klebsiella pneumoniae, read-out: MIC

Row | SMILES | MIC (Enterobacter cloacae [1]) [µg/mL] | MIC (Escherichia coli [2]) [µg/mL] | MIC (Enterobacter cloacae [3]) [µg/mL] | MIC (Escherichia coli [4]; [12]) [µg/mL] | MIC (Klebsiella pneumoniae [5]) [µg/mL] | MIC (Klebsiella pneumoniae [6]; [13]) [µg/mL] | MIC (Pseudomonas aeruginosa [7]) [µg/mL] | MIC (Pseudomonas aeruginosa [8]) [µg/mL] | MIC (Staphylococcus aureus [9]) [µg/mL] | MIC (Staphylococcus aureus [10]) [µg/mL] | MIC (Streptococcus pneumoniae) [µg/mL] | MIC (Serratia marcescens) [µg/mL] | MIC (Streptococcus pyogenes) [µg/mL] | MIC (Enterococcus faecium) [µg/mL] | MIC (Escherichia coli [4]) [µg/mL] | MIC (Klebsiella pneumoniae [6]) [µg/mL] | ED50 (Staphylococcus aureus [11]) [mg/kg]
1 | CO/N=C(\C(=O)N[C@@H]1C(=O)N2C(C(=O)O)=C(COC(C)=O)CS[C@H]12)c1csc(N)n1 [CEFOTAXIME] | 32 (≈ 70.3 µM) | 0.03 (≈ 0.0659 µM) | 0.25 (≈ 0.549 µM) | 0.03 (≈ 0.0659 µM) | 1 (≈ 2.2 µM) | 0.008 (≈ 0.0176 µM) | 32 (≈ 70.3 µM) | 64 (≈ 141 µM) | 16 (≈ 35.1 µM) | 2 (≈ 4.39 µM) | 0.015 (≈ 0.0329 µM) | 0.25 (≈ 0.549 µM) | 0.015 (≈ 0.0329 µM) | > 128 |  |  | 
2 | CO/N=C(\C(=O)N[C@@H]1C(=O)N2C(C(=O)[O-])=C(C[n+]3csc4c3CCC4)CS[C@H]12)c1csc(N)n1 | 4 (≈ 7.68 µM) | 0.06 (≈ 0.115 µM) | 0.25 (≈ 0.48 µM) | 0.06 (≈ 0.115 µM) | 4 (≈ 7.68 µM) | 0.06 (≈ 0.115 µM) | 8 (≈ 15.4 µM) | 32 (≈ 61.5 µM) | 4 (≈ 7.68 µM) | 2 (≈ 3.84 µM) | 0.06 (≈ 0.115 µM) | 0.125 (≈ 0.24 µM) | 0.06 (≈ 0.115 µM) | 32 (≈ 61.5 µM) |  |  | 
3 | CO/N=C(\C(=O)N[C@@H]1C(=O)N2C(C(=O)[O-])=C(C[n+]3ccc(CC(=O)NO)cc3)CS[C@H]12)c1csc(N)n1 (stereo in doubt; 10) |  |  |  |  |  |  |  |  |  |  |  |  |  |  | 0.25 (≈ 0.457 µM) | 0.03 (≈ 0.0548 µM) | 7.2
4 | CO/N=C(\C(=O)N[C@@H]1C(=O)N2C(C(=O)[O-])=C(C[n+]3ccsc3)CS[C@H]12)c1csc(N)n1 | 32 (≈ 66.6 µM) | 0.125 (≈ 0.26 µM) | 0.5 (≈ 1.04 µM) | 0.125 (≈ 0.26 µM) | 8 (≈ 16.6 µM) | 0.125 (≈ 0.26 µM) | 32 (≈ 66.6 µM) | 16 (≈ 33.3 µM) | 8 (≈ 16.6 µM) | 4 (≈ 8.32 µM) | 0.125 (≈ 0.26 µM) | 0.25 (≈ 0.52 µM) | 0.125 (≈ 0.26 µM) | 64 (≈ 133 µM) |  |  | 
5 | CO/N=C(\C(=O)N[C@@H]1C(=O)N2C(C(=O)[O-])=C(C[n+]3ccc4sc(N)cc4c3)CS[C@H]12)c1csc(N)n1 | 8 (≈ 14.7 µM) | 0.015 (≈ 0.0275 µM) | 0.06 (≈ 0.11 µM) | 0.03 (≈ 0.055 µM) | 2 (≈ 3.67 µM) | < 0.008 | 1 (≈ 1.83 µM) | 4 (≈ 7.33 µM) | 4 (≈ 7.33 µM) | 0.5 (≈ 0.916 µM) | < 0.008 | 0.06 (≈ 0.11 µM) | 0.015 (≈ 0.0275 µM) | > 128 |  |  | 
